This passage reports AC50 and IC50 results from ChEMBL document CHEMBL1132832, “Programmed cell death (PCD) associated with the stilbene motif of arotinoids: discovery of novel apoptosis inducer agents possessing activity on multidrug resistant tumor cells” (Bioorg Med Chem Lett, 2000).

Common to all, as to assay type: functional, cell-based
In assay [1] the test system is HL-60. Kind of assay: In vitro apoptotic activity against HL60 cells after 48 hr of treatment. The following applies: Homo sapiens, HL-60, 48 h.
Assay [2] relates to HL-60. Kind of assay: In vitro cytotoxicity against HL60 cells. The following applies: Homo sapiens.
The test system of assay [3] is HuT78. Kind of assay: The compound evaluated for Cytotoxic activity against multi drug resistant HUT 78 cells (the results were obtained after 48 hr treatment). The following applies: Homo sapiens, HuT78, 48 h.
Assay [4] has as its system HuT78. In words: The compound evaluated for apoptotic activity against HUT 78 cells (the results were obtained after 48 hr treatment). The following applies: Homo sapiens, HuT78, 48 h.
In assay [5] the test system is K562. In words: The compound evaluated for apoptotic activity against K562 cells (the results were obtained after 48 hr treatment). The following applies: Homo sapiens, K562, 48 h.
Assay [6] concerns K562. In words: The compound evaluated for Cytotoxic activity against multi drug resistant K562 cells (the results were obtained after 48 hr treatment). The settings on record: Homo sapiens, K562, 48 h.
The test system of assay [7] is HL-60. Kind of assay: The compound evaluated for apoptotic activity against multi drug resistant HL60 R cells (the results were obtained after 48 hr treatment). The settings on record: Homo sapiens, HL-60, 48 h.
Assay [8] has as its system HL-60. In words: The compound evaluated for Cytotoxic activity against multi drug resistant HL60R cells (the results were obtained after 48 hr treatment). The settings on record: Homo sapiens, HL-60, 48 h.
The test system of assay [9] is HuT78. Kind of assay: The compound evaluated for apoptotic activity against multi drug resistant HUT 78 cells (the results were obtained after 48 hr treatment). The settings on record: Homo sapiens, HuT78, 48 h.

SMILES strings stand for the structures.

A word on the AC50: it is the midpoint of the concentration-response curve, whichever way the signal moves. Higher therefore signals activity only at high concentration. A word on the IC50: it is the midpoint of a concentration-inhibition curve. A lower IC50 goes with inhibition by little substance. In turn, `C/C(=C/c1ccc(C(=O)O)cc1)c1ccc2c(c1)C(C)(C)CCC2(C)C` gave an AC50 in the assay with HL-60 [1] of 40 µM. In the assay with HL-60 [2], this compound had a half-maximal inhibitory concentration (IC50) of 10 µM.
`COc1ccc(/C=C/c2ccc3c(c2)C(C)(C)CCC3(C)C)cc1N` returned an AC50 in the assay with HL-60 [1] of 85 µM. Besides, the IC50 in the assay on HL-60 [2] amounted to 61 µM.
For `COc1ccc(/C=C\c2ccc3c(c2)C(C)(C)CCC3(C)C)cc1` the same measures were over 100 µM and 50 µM.
Turning to `COc1ccc(/C=C/c2ccc3c(c2)C(C)(C)CCC3(C)C)cc1`, the AC50 in the assay with HL-60 [1] is over 100 µM. Half-maximal inhibition in the assay with HL-60 [2] (IC50) required 50 µM.
For `C/C(=C/c1cc(C(=O)O)no1)c1ccc2c(c1)C(C)(C)CCC2(C)C` the same measures were 47 µM and 26 µM.
For `C/C(=C/c1ccccc1C(=O)O)c1ccc2c(c1)C(C)(C)CCC2(C)C` the same measures were 90 µM and 52 µM.
With `CC1(C)CCC(C)(C)c2cc(/C=C/c3ccc(N)cc3)ccc21`, in the assay on HL-60 [1], half-maximal activity (AC50) was put at 38 µM. This compound displayed an IC50 in the assay with HL-60 [2] of 18 µM.
Consider `CC1(C)CCC(C)(C)c2cc(/C=C\c3cccc(N)c3)ccc21`, for which the IC50 with HuT78 [3] worked out at 5 µM; with HL-60 [2] it was 10 µM; in the assay with K562 [6] it was 13 µM; in the assay on HL-60 [8], 15 µM. For the same compound, the AC50 is 10 µM in the assay on HL-60 [1], 10 µM with HuT78 [4], 27 µM in the assay on K562 [5] and 25 µM in the assay on HL-60 [7].
With `C/C(=C\c1ccccc1C(=O)O)c1ccc2c(c1)C(C)(C)CCC2(C)C`, the AC50 in the assay with HL-60 [1] was over 100 µM. Moreover, the IC50 with HL-60 [2] was over 100 µM.
`C/C(=C\c1cccc(C(=O)O)c1)c1ccc2c(c1)C(C)(C)CCC2(C)C` showed a concentration at half-maximal activity (AC50) in the assay on HL-60 [1] of over 100 µM. The compound further registered an IC50 in the assay on HL-60 [2] of over 100 µM.
Consider `CC1=C(/C=C/C(C)=C/C=C/C(C)=C/C(=O)O)C(C)(C)CCC1` [TRETINOIN], for which, in the assay with HL-60 [1], the AC50 is over 100 µM.
`C/C(=C\c1ccc(C(=O)O)cc1)c1ccc2c(c1)C(C)(C)CCC2(C)C` displayed an AC50 in the assay with HL-60 [1] of over 100 µM. The same compound gave an IC50 in the assay on HL-60 [2] of 46 µM.
Take `CC1(C)CCC(C)(C)c2cc(/C=C\c3ccc(N)cc3)ccc21`: the IC50 stood at 43 µM with HuT78 [3], 18 µM in the assay on HL-60 [2], 50 µM in the assay with K562 [6] and 25 µM with HL-60 [8]. Also, the AC50 was 38 µM in the assay with HL-60 [1], over 100 µM in the assay on K562 [5], over 100 µM in the assay on HL-60 [7] and over 100 µM in the assay with HuT78 [9].
Regarding `COc1ccc(/C=C(/C)c2ccc3c(c2)C(C)(C)CCC3(C)C)cc1N`, the AC50 in the assay on HL-60 [1] turned out to be 90 µM. The IC50 with HL-60 [2] came to 42 µM.
For the compound `COc1ccc(/C=C\c2ccc3c(c2)C(C)(C)CCC3(C)C)cc1N`, the concentration for half-maximal inhibition (IC50) in the assay with HuT78 [3] came to 22 µM; with HL-60 [2], 25 µM; in the assay on K562 [6], 42 µM; with HL-60 [8] it was 48 µM. The AC50 came to 50 µM in the assay with HL-60 [1], 46 µM with HuT78 [4], 50 µM in the assay with K562 [5] and 87 µM with HL-60 [7].
In turn, `C/C(=C/c1cccc(C(=O)O)c1)c1ccc2c(c1)C(C)(C)CCC2(C)C` gave an AC50 in the assay with HL-60 [1] of 80 µM. The same compound registered an IC50 with HL-60 [2] of 50 µM.
The corresponding values for `CC1(C)CCC(C)(C)c2cc(/C=C/c3cccc(N)c3)ccc21` are 40 µM and 20 µM.
For `COc1ccc(/C=C(\C)c2ccc3c(c2)C(C)(C)CCC3(C)C)cc1N` the same measures were 40 µM and 20 µM.
